Read-outs that look alike come from different tables or passages of the source.
Molecular target: T1, SIRT1 (Homo sapiens, UniProt Q96EB6)
T1 sequence (Q96EB6 1-747): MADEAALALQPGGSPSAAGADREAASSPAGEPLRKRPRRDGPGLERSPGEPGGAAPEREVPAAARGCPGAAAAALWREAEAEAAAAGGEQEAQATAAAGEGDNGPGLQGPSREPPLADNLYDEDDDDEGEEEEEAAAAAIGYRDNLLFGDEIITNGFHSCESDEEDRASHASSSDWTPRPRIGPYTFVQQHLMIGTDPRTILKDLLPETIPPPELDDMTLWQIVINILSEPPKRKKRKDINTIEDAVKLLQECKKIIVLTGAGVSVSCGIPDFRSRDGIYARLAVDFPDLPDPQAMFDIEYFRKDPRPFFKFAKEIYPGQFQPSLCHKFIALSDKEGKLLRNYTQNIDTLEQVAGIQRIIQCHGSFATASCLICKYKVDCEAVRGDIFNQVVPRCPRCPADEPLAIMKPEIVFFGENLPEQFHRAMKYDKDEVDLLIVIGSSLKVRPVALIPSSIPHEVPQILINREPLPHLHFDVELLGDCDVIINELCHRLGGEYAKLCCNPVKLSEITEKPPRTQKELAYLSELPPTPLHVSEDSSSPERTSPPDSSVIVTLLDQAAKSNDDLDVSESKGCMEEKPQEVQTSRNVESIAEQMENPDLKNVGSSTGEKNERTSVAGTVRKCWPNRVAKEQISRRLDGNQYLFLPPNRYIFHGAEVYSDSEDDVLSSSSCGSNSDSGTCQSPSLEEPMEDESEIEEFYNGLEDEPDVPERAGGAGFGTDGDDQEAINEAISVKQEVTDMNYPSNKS
Assay: Trp mass spectrometry assay (SIRT1 activation)
Format: biochemical
Conditions: for Emax: percent maximum fold activation of SIRT1, read-out: Tryp % Fold Act
Procedure, shortened: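 Activation is expressed as EC1.5, the concentration raising activity 50% above DMSO control, and as maximum percent of control. Mass-spec readout was OAADPR or deacetylated Trp peptide after a formic-acid-quenched 25-min, 25 °C reaction: 10 nM bacterially expressed His-SIRT1, 0.5 μM acetyl-p53-derived peptide, 120 μM NAD+, pH 7.5 HEPES with […].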

[1] = concentration of test compound that results in 150% activation of SIRT1, Trp peptide substrate
[2] = Trp mass spectrometry assay, EC1.5 = concentration of test compound that results in 150% activation of SIRT1
[3] = Trp mass spectrometry assay, EC1.5 = concentration giving 150% activation of SIRT1

Row | Structure (SMILES) | Tryp AVG EC1.5 (μM) [1] | Emax (Trp peptide substrate) [%] | Tryp AVG EC1.5 (μM) [2] | Emax (Trp mass spectrometry assay) [%] | Tryp AVG EC1.5 (μM) [3]
1 | O=C(Nc1ccc(F)cn1)N1c2nc(-c3cccc(N4CCC(C(F)(F)F)C4)c3)ccc2N2CC[C@H]1C2 (stereo partly shown) [Example 321] | B (EC1.5 1-25 μM) | ≥ 150 |  |  | 
2 | COc1cc(NC(=O)N2c3nc(-c4cccc(C#N)c4)ccc3N3CC[C@H]2C3)ncn1 [Example 140] |  |  | A (EC1.5<1 μM) | ≥ 150 | 
3 | N=C(N)NCc1ncc(-c2cccc(NC(=O)N3c4nc(-c5cccc(C(F)(F)F)c5)ccc4N4CC[C@H]3C4)c2)o1 [Example 776] |  |  |  | ≥ 150 | A (EC1.5<1 μM)
4 | NC(=O)c1cncc(-c2ccc3c(n2)N(C(=O)Nc2ccccn2)[C@H]2CCN3C2)c1 [Example 371] | B (EC1.5 1-25 μM) | ≥ 150 |  |  | 
5 | NCc1ccc(NC(=O)N2c3nc(-c4cccc(C(F)(F)F)c4)ccc3N3CCC[C@H]2C3)cc1 [444 (4)] | A (EC1.5<1 μM) | ≥ 150 |  |  | 
6 | COc1cc(NC(=O)N2c3nc(-c4cccc(C(F)(F)F)c4)ccc3N3C[C@@H](O)[C@H]2C3)nc(OC)n1 [Example 664] |  |  |  | ≥ 150 | B (EC1.5 1-25 μM)
7 | CN(C)c1cc(NC(=O)N2c3nc(N4CCCC(C(F)(F)F)C4)ccc3N3CC[C@H]2C3)ccn1 (stereo partly shown) [Example 216] |  |  | A (EC1.5<1 μM) | ≥ 150 | 
8 | O=C(Nc1ccncn1)N1c2nc(N3CCCC(C(F)(F)F)C3)ccc2N2CCC[C@@H]1C2 (stereo partly shown) [Example 308] | C (EC1.5>25 μM) | ≥ 150 |  |  | 
9 | O=C(Nc1ccc(F)cn1)N1c2nc(-c3ccnc(C(F)(F)F)c3)ccc2N2CC[C@H]1C2 [Example 128] |  |  | A (EC1.5<1 μM) | ≥ 150 | 
10 | Cc1cc(OCC(O)CO)nc(NC(=O)N2c3nc(-c4cccc(C(F)(F)F)c4)ccc3N3CC[C@H]2C3)n1 (stereo partly shown) [Example 26] |  |  | B (EC1.5 1-25 μM) | ≥ 150 | 
11 | O=C(Nc1cncc(F)c1)N1c2nc(N3CCCC(C(F)(F)F)C3)ccc2N2CC[C@H]1C2 (stereo partly shown) [Example 232] | B (EC1.5 1-25 μM) | ≥ 150 |  |  | 
12 | CC(=O)c1ccc(NC(=O)N2c3nc(-c4cccc(C(F)(F)F)c4)ccc3N3CC[C@H]2C3)cc1 [Example 668] |  |  |  | ≥ 150 | A (EC1.5<1 μM)
13 | Cc1nc(NC(=O)N2c3nc(N4CCCC(C(F)(F)F)C4)ccc3N3CCC[C@H]2C3)sc1C (stereo partly shown) [Example 298] | B (EC1.5 1-25 μM) | ≥ 150 |  |  | 
14 | COc1cncc(NC(=O)N2c3nc(-c4cccc(OC(F)(F)F)c4)ccc3N3CC[C@H]2C3)n1 [Example 197] |  |  | A (EC1.5<1 μM) | ≥ 150 | 
15 | O=C(Nc1ccc(F)cn1)N1c2nc(-c3ccnc(N4CC[C@@H](F)C4)c3)ccc2N2CC[C@H]1C2 [Example 474] | A (EC1.5<1 μM) | ≥ 150 |  |  | 
16 | O=C(Nc1ccncn1)N1c2nc(-c3cccc(N4CCCC4)c3)ccc2N2CC[C@H]1C2 [Example 193] |  |  | B (EC1.5 1-25 μM) | ≥ 150 | 
17 | CC(C)(C)c1csc(NC(=O)N2c3nc(-c4cccc(C(F)(F)F)c4)ccc3N3CC[C@H]2C3)n1 [Example 72] |  |  |  | ≥ 150 | 
18 | O=C(Nc1cccnc1)N1c2nc(-c3cc[nH]n3)ccc2N2CC[C@H]1C2 [Example 493] | B (EC1.5 1-25 μM) | ≥ 150 |  |  | 
19 | O=C(Nc1cnccn1)N1c2nc(-c3ccc(Cl)c(C(F)(F)F)c3)ccc2N2CC[C@H]1C2 [Example 435] | A (EC1.5<1 μM) | ≥ 150 |  |  | 
20 | O=C(Nc1ccc(F)cn1)N1c2nc(-c3cccc(Cl)c3)ccc2N2CC[C@H]1C2 [Example 43] |  |  |  | ≥ 150 | 
21 | Cn1cc(NC(=O)N2c3nc(-c4cccc(OC(F)(F)F)c4)ccc3N3CC[C@H]2C3)cn1 [Example 167] |  |  | B (EC1.5 1-25 μM) | ≥ 150 | 

Row | Structure (SMILES) | Tryp AVG EC1.5 (μM) [1] | Emax (Trp peptide substrate) [%] | Tryp AVG EC1.5 (μM) [2] | Emax (Trp mass spectrometry assay) [%] | Tryp AVG EC1.5 (μM) [3]
22 | N#Cc1cccc(-c2ccc3c(n2)N(C(=O)Nc2ccccn2)[C@H]2CCCN3C2)c1 [Example 348] | A (EC1.5<1 μM) | ≥ 150 |  |  | 
23 | [N-]=[N+]=NCc1cc(N=[N+]=[N-])cc(-c2ccc3c(n2)N(C(=O)Nc2cnccn2)[C@H]2CCN3C2)c1 [Example 808] |  |  |  | ≥ 150 | A (EC1.5<1 μM)
24 | Cc1cnc(NC(=O)N2c3nc(N4CCCC(C(F)(F)F)C4)ccc3N3CCC[C@@H]2C3)s1 (stereo partly shown) [Example 311] | C (EC1.5>25 μM) | < 150 |  |  | 
25 | N#Cc1cccc(-c2ccc3c(n2)N(C(=O)Nc2cncc(F)c2)[C@H]2CCCN3C2)c1 [Example 353] | A (EC1.5<1 μM) | ≥ 150 |  |  | 
26 | O=C(NCCc1ccccc1)N1c2nc(-c3cccc(C(F)(F)F)c3)ccc2N2CC[C@H]1C2 [Example 598] | B (EC1.5 1-25 μM) | ≥ 150 |  |  | 
27 | COc1cncc(NC(=O)N2c3nc(N4CCCC(C(F)(F)F)C4)ccc3N3CCC[C@@H]2C3)c1 (stereo partly shown) [Example 309] | B (EC1.5 1-25 μM) | ≥ 150 |  |  | 
28 | N#Cc1ccccc1-c1ccc2c(n1)N(C(=O)Nc1cncc(F)c1)[C@H]1CCCN2C1 [Example 439] | B (EC1.5 1-25 μM) | ≥ 150 |  |  | 
29 | Cn1cc(NC(=O)N2c3nc(-c4cccc(C(F)(F)F)c4)ccc3N3CCC[C@H]2C3)cn1 [Example 40] |  |  |  | ≥ 150 | 
30 | O=C(Nc1cncc(F)c1)N1c2nc(N3CCCC(C(F)(F)F)C3)ccc2N2CCC[C@@H]1C2 (stereo partly shown) [Example 304] | B (EC1.5 1-25 μM) | ≥ 150 |  |  | 
31 | Cc1cncc(-c2ccc3c(n2)N(C(=O)Nc2nc(C)c(C)s2)[C@H]2CCCN3C2)c1 [Example 507] | A (EC1.5<1 μM) | ≥ 150 |  |  | 
32 | O=C(Nc1ccc(F)cn1)N1c2nc(-c3cccc(Cl)c3)ccc2N2CC[C@@H]1C2 [Example 204] |  |  | B (EC1.5 1-25 μM) | ≥ 150 | 
33 | CN(C)c1cccc(-c2ccc3c(n2)N(C(=O)Nc2ccccn2)[C@H]2CCCN3C2)c1 [Example 386] | B (EC1.5 1-25 μM) | ≥ 150 |  |  | 
34 | O=C(Nc1ccc2[nH]ncc2c1)N1c2nc(-c3cccc(C(F)(F)F)c3)ccc2N2CC[C@H]1C2 [Example 666] |  |  |  | ≥ 150 | A (EC1.5<1 μM)
35 | NCc1cn(-c2cccc(NC(=O)N3c4nc(-c5cccc(C(F)(F)F)c5)ccc4N4CC[C@H]3C4)c2)nn1 [Example 606] | A (EC1.5<1 μM) | ≥ 150 |  |  | 
36 | O=C(NCCCc1ccccc1)N1c2nc(-c3cccc(C(F)(F)F)c3)ccc2N2CC[C@H]1C2 [Example 599] | B (EC1.5 1-25 μM) | ≥ 150 |  |  | 
37 | O=C(Nc1cncc(-c2cnco2)c1)N1c2nc(-c3cncc(F)c3)ccc2N2CC[C@H]1C2 [Example 716] |  |  |  | ≥ 150 | B (EC1.5 1-25 μM)
38 | COc1cc(NC(=O)N2c3nc(-c4cccc(Cl)c4)ccc3N3CC[C@H]2C3)nc(OC)n1 [Example 103] |  |  | B (EC1.5 1-25 μM) | ≥ 150 | 
39 | CCCn1cc(-c2ccc3c(n2)N(C(=O)Nc2cccnc2)[C@H]2CCN3C2)cn1 [Example 487] | B (EC1.5 1-25 μM) | ≥ 150 |  |  | 
40 | O=C(Nc1cncc(F)c1)N1c2nc(-c3cncc(Cl)c3)ccc2N2CCC1CC2 [Example 545] | B (EC1.5 1-25 μM) | ≥ 150 |  |  | 
41 | CN(C)c1ccnc(NC(=O)N2c3nc(-c4cccc(C(F)(F)F)c4)ccc3N3CC[C@H]2C3)n1 [Example 747] |  |  |  | ≥ 150 | A (EC1.5<1 μM)

Source: patent US9765075B2, “Substituted bridged urea analogs as sirtuin modulators” (GLAXOSMITHKLINE LLC, priority 2013, dated 2017)
